# Experimental data taken from paper PMC9953885 (Biosensors, 2023).
# Counter-ions that a name gives are not always drawn.
# Biological target: T1, human pancreatic lipase (hPL) (Homo sapiens, UniProt P16233)
# T1 construct: gene PNLIP
# T1 sequence (P16233 17-465): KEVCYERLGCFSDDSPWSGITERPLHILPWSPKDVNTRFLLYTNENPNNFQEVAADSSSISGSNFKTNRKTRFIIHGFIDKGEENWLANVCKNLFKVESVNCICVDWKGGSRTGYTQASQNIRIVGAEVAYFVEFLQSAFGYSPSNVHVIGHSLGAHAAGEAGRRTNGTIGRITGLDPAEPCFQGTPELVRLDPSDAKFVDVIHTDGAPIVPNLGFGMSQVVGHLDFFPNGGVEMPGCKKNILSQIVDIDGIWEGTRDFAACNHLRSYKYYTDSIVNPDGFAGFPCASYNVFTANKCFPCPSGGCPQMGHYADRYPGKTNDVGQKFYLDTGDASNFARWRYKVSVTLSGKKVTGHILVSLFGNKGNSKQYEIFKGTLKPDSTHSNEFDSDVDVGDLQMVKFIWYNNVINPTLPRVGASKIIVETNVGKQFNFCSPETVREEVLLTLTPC
# Conditions: 10 µM; inhibitor
# Description: First, we evaluated the inhibitory effect of 94 natural products derived from herbs and 94 drugs on hPL. In our high-throughput screening system, 1 ug/mL hPL was used, and the final concentration of the 94 natural products derived from herbs and 94 drugs used was 10 μM. Other conditions were the same as in the selectivity experiments. […] RLE was incubated with hPL and various enzymes, such as hCES1A, hCES2A, CA, AchE, BchE, 5-HKE, lysozyme, trypsin, thrombin, α-CT, FAP, PREP, pepsin, α-amylase, plasmin, notum and hSA, in a 100 µL incubation mixture consisting of Tris-HCl (pH = 7.4, 25 mM), NaCl (150 mM), CaCl2 (1 mM) and porcine bile salt (0.1 mg/mL) at a concentration of 1.5 µg/mL. The reaction was initiated by adding RLE to the preincubated enzyme mixture at 37 °C, and metabolite formation was determined by measuring the fluorescence intensity of resorufin at 590 nm. In addition, several amino acids (IIe, His, Trp, Val, Leu, Tyr, Ala, Thr, Pro, Asp, Lys, Met, Cys, Ser, Phe, Gly, Glu and Gln), ions (Ni^2+, Ca^2+, Na^+, K^+, Cu^2+, Zn^2+, Mg^2+, NH4^+, Cu^+, Fe^2+ and CN^-) and GSH were measured. The concentration of these interfering factors was 5 μM. […] In this case, a visual high-throughput assay was established to screen hPL inhibitors, using RLE as a fluorogenic substrate in a 96-well microplate.
row,SMILES,% of control remaining [%]
1,Oc1ccc2c(c1)OCO2 [Sesamol],103.95
2,Cc1cc(NS(=O)(=O)c2ccc(N)cc2)no1 [Sulfamethoxazole],98.83
3,CC1(C)OC(=O)C=C[C@]2(C)[C@H]3CC[C@@]4(C)[C@H](c5ccoc5)OC(=O)[C@H]5O[C@]54[C@]3(C)C(=O)C[C@@H]12 [Obacunon],79.60
4,CC(C)OC(=O)C(C)(C)Oc1ccc(C(=O)c2ccc(Cl)cc2)cc1 [Fenofibrate],94.68
5,COc1c(OC)c2occc2c2oc(=O)ccc12 [Pimpinellin],61.25
6,CCN(CC)CCNC(=O)c1cc(S(C)(=O)=O)ccc1OC [Tiapride],108.20
7,CCOC(=O)C1=C[C@@H](OC(CC)CC)[C@H](NC(C)=O)[C@@H](N)C1 [Oseltamivir phosphate],101.77
8,O=C(CCc1ccc(O)cc1)c1c(O)cc(O)cc1O [Phloretin],81.23
9,CCc1c2c(nc3ccc(OC(=O)N4CCC(N5CCCCC5)CC4)cc13)-c1cc3c(c(=O)n1C2)COC(=O)[C@]3(O)CC [Irinotecan],105.25
10,COc1ccc(-c2oc3c(CC=C(C)C)c(O[C@@H]4O[C@H](CO)[C@@H](O)[C@H](O)[C@H]4O)cc(O)c3c(=O)c2O[C@@H]2O[C@@H](C)[C@H](O)[C@@H](O)[C@H]2O[C@@H]2O[C@@H](C)[C@H](O)[C@@H](O)[C@H]2O)cc1 [Epmedin C],81.94
11,NC(=O)N1c2ccccc2C=Cc2ccccc21 [Carbamazepine],104.15
12,O=c1c(O)c(-c2cc(O)c(O)c(O)c2)oc2cc(O)cc(O)c12 [Myricetin],56.43
13,COc1c2occc2cc2ccc(=O)oc12 [8-Methoxypsoralen],90.65
14,Nc1nnc(-c2cccc(Cl)c2Cl)c(N)n1 [Lamotrigine],84.88
15,O=C1C[C@@H](c2ccc(O[C@@H]3O[C@H](CO)[C@@H](O)[C@H](O)[C@H]3O)cc2)Oc2cc(O)ccc21 [Liquiritin],105.77
16,CC(C)c1nc(CN(C)C(=O)N[C@H](C(=O)N[C@@H](Cc2ccccc2)C[C@H](O)[C@H](Cc2ccccc2)NC(=O)OCc2cncs2)C(C)C)cs1 [Ritonavir],97.04
17,COc1cc2c(cc1OC)-c1c(C)c3ccc(OC)c(OC)c3c[n+]1CC2 [Dehydrocorydaline],123.69
18,O=C(NC[C@H]1CN(c2ccc(N3CCOCC3=O)cc2)C(=O)O1)c1ccc(Cl)s1 [Rivaroxaban],118.66
19,CC(C(=O)O)c1cccc(Oc2ccccc2)c1 (centres unmarked) [Fenoprofen],91.13
20,COc1ccc(-c2coc3cc(O)ccc3c2=O)cc1 [Formononetin],104.25
21,NS(=O)(=O)c1cc(C(=O)O)c(NCc2ccco2)cc1Cl [Furosemide],100.00
22,COc1ccc2c(c1)c(CC(=O)O)c(C)n2C(=O)c1ccc(Cl)cc1 [Indometacin],102.95
23,NCC[C@H](O)C(=O)N[C@@H]1C[C@H](N)[C@@H](O[C@H]2O[C@H](CN)[C@@H](O)[C@H](O)[C@H]2O)[C@H](O)[C@H]1O[C@H]1O[C@H](CO)[C@@H](O)[C@H](N)[C@H]1O [Amikacin],73.77
24,Cc1cn([C@H]2C[C@H](N=[N+]=[N-])[C@@H](CO)O2)c(=O)[nH]c1=O [Zidovudine],73.04
25,O=c1c(O[C@@H]2O[C@H](CO)[C@@H](O)[C@H](O)[C@H]2O)c(-c2ccc(O)cc2)oc2cc(O)cc(O)c12 [Astragalin],107.88
26,O=C1C([C@@H]2O[C@H](CO)[C@@H](O)[C@H](O)[C@H]2O)=C(O)/C(=C(O)/C=C/c2ccc(O)cc2)C(=O)C1(O)[C@@H]1O[C@H](CO)[C@@H](O)[C@H](O)[C@H]1O (some centres unmarked) [Hydroxysafflor yellow A],76.59
27,O=C1C[C@@H](c2ccccc2)Oc2cc(O)cc(O)c21 [Pinocembrin],91.25

row,SMILES,% of control remaining [%]
1,O=P1(N(CCCl)CCCl)NCCCO1 (centres unmarked) [Cyclophosphamide],91.59
2,C[C@@H]1C(=O)O[C@H]2[C@H](O)[C@@]34[C@H]5C[C@@H](C(C)(C)C)[C@]36[C@@H](OC(=O)[C@@H]6O)O[C@@]4(C(=O)O5)[C@@]12O [Ginkgolide B],120.07
3,O=c1cc(-c2ccc(O)cc2)oc2cc(O)c([C@@H]3O[C@H](CO)[C@@H](O)[C@H](O)[C@H]3O)c(O)c12 [Isovitexin],79.86
4,C[C@H]1CC[C@@]2(OC1)O[C@H]1C[C@H]3[C@@H]4CC[C@@H]5C[C@@H](O[C@@H]6O[C@H](CO)[C@H](O)[C@H](O)[C@H]6O[C@@H]6O[C@H](CO)[C@@H](O)[C@H](O)[C@H]6O)CC[C@]5(C)[C@H]4CC[C@]3(C)[C@H]1[C@@H]2C [Timosaponin A-III],95.12
5,CCC(CC)COC(=O)[C@H](C)N[P@](=O)(OC[C@H]1O[C@@](C#N)(c2ccc3c(N)ncnn23)[C@H](O)[C@@H]1O)Oc1ccccc1 [Remdesivir],98.67
6,COc1cc2c(cc1OC)-c1cc3ccc(OC)c(OC)c3c[n+]1CC2 [Palmatine chloride],87.01
7,CN[C@H](CC(C)C)C(=O)N[C@H]1C(=O)N[C@@H](CC(N)=O)C(=O)N[C@H]2C(=O)N[C@H]3C(=O)N[C@H](C(=O)N[C@H](C(=O)O)c4cc(O)cc(O)c4-c4cc3ccc4O)[C@H](O)c3ccc(c(Cl)c3)Oc3cc2cc(c3O[C@@H]2O[C@H](CO)[C@@H](O)[C@H](O)[C@H]2O[C@H]2C[C@](C)(N)[C@H](O)[C@H](C)O2)Oc2ccc(cc2Cl)[C@H]1O [Vancomycin],96.04
8,CCC/C=C1\OC(=O)C2=C1CCC=C2 [Z-Ligustilide],83.60
9,CCC1=C[C@@H]2CN3CCc4c([nH]c5ccccc45)[C@@](C(=O)OC)(C2)[C@@H]13 [Catharanthine],81.11
10,CC(C)Oc1ccc2c(=O)c(-c3ccccc3)coc2c1 [Ipriflavone],84.50
11,Cc1ncc2n1-c1ccc(Cl)cc1C(c1ccccc1F)=NC2 [Midazolam],96.73
12,COc1c(/C=C/C(=O)c2ccc(O)cc2)ccc(O)c1O [Licochalcone B],58.04
13,CC1(C)O[C@H]2CC(=O)OC[C@]23[C@H]2CC[C@@]4(C)[C@H](c5ccoc5)OC(=O)[C@H]5O[C@]54[C@]2(C)C(=O)C[C@@H]13 [Limonin],85.30
14,CN(C)C(=O)Oc1cc(OC(=O)N(C)C)cc(C(O)CNC(C)(C)C)c1 (centres unmarked) [Bambuterol hydrochloride],93.23
15,CC(C)(O/N=C(\C(=O)N[C@@H]1C(=O)N2C(C(=O)[O-])=C(C[n+]3ccccc3)CS[C@H]12)c1csc(N)n1)C(=O)O [CeftazidiMe],118.41
16,O=c1ccc2cc(O)c(O)cc2o1 [Esculetin],86.12
17,C[C@@H]1O[C@@H](Oc2c(-c3cc(O)c(O)c(O)c3)oc3cc(O)cc(O)c3c2=O)[C@H](O)[C@H](O)[C@H]1O [Myricitrin],91.12
18,CC[C@H](C)C(=O)O[C@H]1C[C@@H](C)C=C2C=C[C@H](C)[C@H](CC[C@@H]3C[C@@H](O)CC(=O)O3)[C@H]21 [Lovastatin],80.96
19,C#C[C@]1(O)CC[C@H]2[C@@H]3CCC4=CC(=O)CC[C@@H]4[C@H]3C(=C)C[C@@]21CC [Etonogestrel],62.97
20,CC1COc2c(N3CCN(C)CC3)c(F)cc3c(=O)c(C(=O)O)cn1c23 (centres unmarked) [Ofloxacin],87.95
21,O=C(CCc1ccc(O)cc1)c1c(O)cc(O)cc1O[C@@H]1O[C@H](CO)[C@@H](O)[C@H](O)[C@H]1O [Phlorizin dihydrate],85.09
22,CC#CCn1c(N2CCC[C@@H](N)C2)nc2c1c(=O)n(Cc1nc(C)c3ccccc3n1)c(=O)n2C [Linagliptin],108.93
23,Nc1ccn([C@@H]2O[C@H](CO)[C@@H](O)C2(F)F)c(=O)n1 [Gemcitabine],105.06
24,COc1cc2/c(=N/c3ccc(Br)cc3F)nc[nH]c2cc1OCC1CCN(C)CC1 [Vandetanib],104.95
25,O=C(/C=C/c1ccccc1)OCc1ccccc1 [Benzyl cinnamate],74.62
26,O=c1cc(-c2ccc(O)cc2)oc2cc(O)cc(O)c12 [Apigenin],102.46
